Experimental data: patent publication US20260097012A1, “COMPOSITIONS AND METHODS FOR TREATING GRAFT-RELATED ARRHYTHMIA” (BlueRock Therapeutics LP, priority 2022, published 2026)

Tested on: graft related arrhythmias (sustained VT)
Assay: Treatment of graft-induced arrhythmia in pig model (myocardial infarction plus cardiomyocyte graft)
Settings: pig P2, after VT on day 10/11; by day 13 onwards

CCCCc1oc2ccccc2c1C(=O)c1cc(I)c(OCCN(CC)CC)c(I)c1 [amiodarone]
effect of adjusting the dosage on rhythm: effective at achieving normal sinus rhythm
